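Grown in 96-well plates, cells were treated for 48 hours with each compound at five concentrations. Insufficient inhibition: endpoint recorded as highest concentration tested. Definition used: TGI = concentration required for complete inhibition of growth.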
What was measured:
Assay in all cases: growth of human tumour cells (NCI), 48 h
KM12 colon = system: KM12 colon
MOLT-4 leukemia = system: MOLT-4 leukemia
SN12C renal = system: SN12C renal
SF-295 CNS = system: SF-295 CNS
RXF 393 renal = system: RXF 393 renal
SW-620 colon = system: SW-620 colon
SK-MEL-2 melanoma = system: SK-MEL-2 melanoma
A498 renal = system: A498 renal
U251 CNS = system: U251 CNS
OVCAR-5 ovarian = system: OVCAR-5 ovarian
SF-268 CNS = system: SF-268 CNS
LOX IMVI melanoma = system: LOX IMVI melanoma
UO-31 renal = system: UO-31 renal
SK-MEL-28 melanoma = system: SK-MEL-28 melanoma
NCI-H23 lung = system: NCI-H23 lung
CAKI-1 renal = system: CAKI-1 renal
DLD-1 colon = system: DLD-1 colon
KM20L2 colon = system: KM20L2 colon
DMS 114 small cell lung = system: DMS 114 small cell lung
786-0 renal = system: 786-0 renal
NCI-H522 lung = system: NCI-H522 lung
HT29 colon = system: HT29 colon
NCI-H226 lung = system: NCI-H226 lung
OVCAR-3 ovarian = system: OVCAR-3 ovarian
RPMI-8226 leukemia = system: RPMI-8226 leukemia
MALME-3M melanoma = system: MALME-3M melanoma
OVCAR-8 ovarian = system: OVCAR-8 ovarian
SF-539 CNS = system: SF-539 CNS
M19-MEL melanoma = system: M19-MEL melanoma
K-562 leukemia = system: K-562 leukemia
XF 498 CNS = system: XF 498 CNS
HOP-92 NSCLC = system: HOP-92 NSCLC
DMS 273 small cell lung = system: DMS 273 small cell lung
HOP-62 NSCLC = system: HOP-62 NSCLC
A549 NSCLC = system: A549 NSCLC
UACC-257 melanoma = system: UACC-257 melanoma
SNB-19 CNS = system: SNB-19 CNS
M14 melanoma = system: M14 melanoma
EKVX NSCLC = system: EKVX NSCLC
TK-10 renal = system: TK-10 renal
SNB-75 CNS = system: SNB-75 CNS
SK-MEL-5 melanoma = system: SK-MEL-5 melanoma
COLO 205 colon = system: COLO 205 colon
SNB-78 CNS = system: SNB-78 CNS
NCI-H460 lung = system: NCI-H460 lung
HCT-15 colon = system: HCT-15 colon
ACHN renal = system: ACHN renal
CCRF-CEM leukemia = system: CCRF-CEM leukemia
HCC-2998 colon = system: HCC-2998 colon
IGROV1 ovarian = system: IGROV1 ovarian
SK-OV-3 ovarian = system: SK-OV-3 ovarian
UACC-62 melanoma = system: UACC-62 melanoma
OVCAR-4 ovarian = system: OVCAR-4 ovarian

## Cc1ccccc1SC(/C=C/NNC1=NC(c2ccccc2)C(c2ccccc2)=NN1)c1ccccc1 (stereo not drawn)
KM12 colon
  TGI: > 100 µM
MOLT-4 leukemia
  TGI: > 100 µM
SN12C renal
  TGI: > 100 µM
SF-295 CNS
  TGI: 57.7 µM
RXF 393 renal
  TGI: 31.2 µM
SW-620 colon
  TGI: > 100 µM
SK-MEL-2 melanoma
  TGI: 45.3 µM
A498 renal
  TGI: 64.2 µM
U251 CNS
  TGI: 64.7 µM
OVCAR-5 ovarian
  TGI: > 100 µM
SF-268 CNS
  TGI: 58.7 µM
LOX IMVI melanoma
  TGI: > 100 µM
UO-31 renal
  TGI: 48.6 µM
SK-MEL-28 melanoma
  TGI: 43 µM
NCI-H23 lung
  TGI: 50.2 µM
CAKI-1 renal
  TGI: 30 µM
DLD-1 colon
  TGI: > 100 µM
KM20L2 colon
  TGI: > 100 µM
DMS 114 small cell lung
  TGI: 78.4 µM
786-0 renal
  TGI: 25.9 µM
NCI-H522 lung
  TGI: > 100 µM
HT29 colon
  TGI: > 100 µM
NCI-H226 lung
  TGI: 52 µM
OVCAR-3 ovarian
  TGI: 31.7 µM
RPMI-8226 leukemia
  TGI: > 100 µM
MALME-3M melanoma
  TGI: 75.1 µM
OVCAR-8 ovarian
  TGI: 40 µM
SF-539 CNS
  TGI: 27.6 µM
M19-MEL melanoma
  TGI: > 100 µM
K-562 leukemia
  TGI: > 100 µM
XF 498 CNS
  TGI: 60.4 µM
HOP-92 NSCLC
  TGI: 27.7 µM
DMS 273 small cell lung
  TGI: > 100 µM
HOP-62 NSCLC
  TGI: 49.4 µM
A549 NSCLC
  TGI: 46.7 µM
UACC-257 melanoma
  TGI: > 100 µM
SNB-19 CNS
  TGI: > 100 µM
M14 melanoma
  TGI: 87.6 µM
EKVX NSCLC
  TGI: > 100 µM
TK-10 renal
  TGI: 43.2 µM
SNB-75 CNS
  TGI: 20.8 µM
SK-MEL-5 melanoma
  TGI: > 100 µM
COLO 205 colon
  TGI: > 100 µM
SNB-78 CNS
  TGI: 73.9 µM
NCI-H460 lung
  TGI: > 100 µM
HCT-15 colon
  TGI: > 100 µM
ACHN renal
  TGI: 42.8 µM
CCRF-CEM leukemia
  TGI: 94.4 µM
HCC-2998 colon
  TGI: > 100 µM
IGROV1 ovarian
  TGI: 80.2 µM
SK-OV-3 ovarian
  TGI: 45.3 µM
UACC-62 melanoma
  TGI: > 100 µM
OVCAR-4 ovarian
  TGI: 9.16 µM

Source: PubChem BioAssay (NCI)
